Tests used:
β2AR [1] = molecular target: T1, β2AR (Homo sapiens, UniProt P07550); experiment: cAMP FRET sensor (TEpacVV) agonist assay in HEK 293 cells; assay type: cell-based; conditions: for intracellular cAMP level: addition of probe to the cells, 60 min at room temperature (Suppl. Fig. 13)
Method: Upon cAMP binding, the sensor undergoes a conformational change resulting in a decrease of the FRET efficiency between two fluorescent proteins: mTurquoise - a version of cyan fluorescent protein (CFP) as the donor, and yellow fluorescent protein (YFP) as the acceptor (Fig. 3a).
The intracellular cyclic adenosine monophosphate (cAMP) levels were determined with HEK 293 cells expressing a 3′,5′-cAMP FRET sensor. The cells were a generous gift from Ruud Hovius from École poly-technique fédérale de Lausanne (EPFL). The cAMP production induces a conformational switch in ^TEpac^VV and causes a decrease in FRET efficiency, i.e. a decreased energy transfer between the two fluorescent proteins (donor mTurquoise and acceptor YFP)[32].
The culture was maintained by subculturing the cells every 4 to 5 days using the standard trypsinization procedure. Before measurements, cells were trypsinated and transferred in a 96-well glass bottom plate (MatTek Corporation; Cat. No. P96GC-1.5–5-F) to contain 10,000–30,000 cells per well in 200 µL of DMEM media. After 24 h incubation in 5% CO2 at 37 °C, the cells were washed with HBSS pH 7.2 (200 µL), and the wells were filled with 200 µL HBSS. The DMSO stock solutions of the fluorescent probes were diluted 5,000 times in HBSS and used in experiments. […] The fluorescent ligand solutions of different concentrations in HBSS were premixed with the isoprenaline solution. 50 µL of a final solution was added to each well and the measurement was started upon addition and continued for 1 h in 10 min intervals between the readouts (inclusive).
The ligands were added using an automated pipette to initiate the sensor response. FRET readout from the cAMP sensor was performed on a multiwell plate reader Spark 20 M (Tecan) at room temperature (25 °C). Fluorescence readout amplitudes were calculated from time series for different ligand concentrations, following background subtraction (media only). […] Data were derived from 3 independent experiments and each independent experiment was performed in triplicate.
Sensor response R(CFP/FRET) was calculated using (1):1 R(CFP/FRET)=(FimTurquoise−FbkgmTurquoise)/(FiFRET−FbkgFRET) where F i ^mTurquoise – mTurquoise fluorescence intensity in the wells with cells; F bkg ^mTurquoise - mTurquoise fluorescence intensity in the control wells without cells; F i ^FRET – FRET signal intensity in the wells with cells; F bkg ^FRET – FRET signal intensity in the control wells without cells. For every result, R(CFP/FRET) ratio was normalized to the R(CFP/FRET) response of DMSO sample.

β2AR-YFP fusion protein = molecular target: T2, β2AR-YFP fusion protein (Homo sapiens, UniProt P07550); experiment: Confocal imaging of living U2OS cells expressing β2AR-YFP (staining, internalization, competitive displacement, no-wash); assay type: cell-based; conditions: for Receptor internalization / Staining performance: U2OS cells expressing β2AR-YFP; for Staining performance: 610CP ligands at 1.9 µM (19) and 2.5 µM (16); for Competitive displacement: 100 nM probe (5 nM ab118171) with 10 µM unlabeled BI-167107 or carazolol, 30 min
T2 construct: host or cells: U2OS
Method: U2OS cells (ATCC) were cultured in high-glucose DMEM (Dulbecco’s Modified Eagle medium, Thermo Fisher Scientific) supplemented with GlutaMAX-1 (Thermo Fisher Scientific) and 10% fetal bovine serum (FBS) (Thermo Fisher Scientific) in a humidified 5% CO2 incubator at 37 °C. CAPAN-1 cells (ATCC) were cultured in McCoy’s 5a Medium Modified supplemented with 10% fetal bovine serum (FBS) (Thermo Fisher Scientific) in a humidified 5% CO2 atmosphere at 37 °C. Cells were split every 3–5 days or at confluence. Cells were seeded in glass bottom 12-well plates (MatTek Corporation). […] We used 200,000 cells per well, 3 µg plasmid DNA and 3 µl of Lipofectamine 2000.
We performed imaging 48–72 h after transfection. Staining of the transfected cell was performed in Hanks’ balanced salt solution (HBSS, Lonza) without Phenol Red for 30–40 min at room temperature (to minimize internalization). Samples were washed two times with HBSS, and cells were imaged in DMEM (Thermo Fisher Scientific) supplemented with GlutaMAX-1 (Thermo Fisher Scientific) and 10% fetal bovine serum (FBS). For all staining experiments with cells, stock solutions of dyes in DMSO were used, and final DMSO content was < 0.5%. Imaging was performed on Leica SP8 (Leica Microsystems) or Abberior STED (Abberior Instruments GmbH) microscopes.
Competitive displacement experiment was performed in living U2OS cells expressing β2AR-YFP fusion protein.
Confocal imaging was performed on a Leica SP8 (Leica Microsystems, Mannheim, Germany) inverted confocal microscope equipped with an HC PL APO CS2 63x/1.40 Oil objective. Images were acquired using a 700 Hz bidirectional scanner, pixel size of 70 nm × 70 nm, pinhole of 95.6 µm diameter(1 AU) and frame averaging of 2.

β2AR [2] = molecular target: T1, β2AR; experiment: Staining and competitive binding in CAPAN-1 cells at endogenous β2AR expression; assay type: cell-based; conditions: for receptor staining: 100 nM probe; for competitive binding with excess unlabeled ligand: 100 nM probe (5 nM ab118171) with 10 µM BI-167107 or carazolol
Method: To study the selectivity of β2AR staining at the endogenous expression levels, which are much lower compared to those in transiently β2AR expressing U2OS cells, we tested the performance of BI-167107 probes in pancreatic CAPAN-1 cells (Fig. 7c–f). […] Low density of β2AR in the plasma membrane of CAPAN-1 cells allowed us to measure of the lateral resolution in the STED images. When the cells were incubated with 100 nM BI-PEG-KK114 (18) ligand, we observed two-fold improvement in the resolution resulting in apparent structures of ~100 nm (Fig. 7d; Supplementary Table 4).
For staining of CAPAN-1 cells, fluorescent probes or mixtures of a probe and a competitor were incubated in McCoy’s 5a Medium Modified supplemented with 10% fetal bovine serum (FBS) for 30–40 min at room temperature. Afterwards, the samples were washed two times with HBSS, and cells were imaged in DMEM (Thermo Fisher Scientific) supplemented with GlutaMAX-1 (Thermo Fisher Scientific) and 10% fetal bovine serum (FBS). Imaging performed on Leica SP8 (Leica Microsystems) or Abberior STED (Abberior Instruments GmbH) microscopes.

[3] = Fluorescence increase upon addition of SDS to probe solutions; assay type: physicochemical; conditions: addition of 0.1% SDS to ligand in PBS pH 7.4 with 1 mg/ml BSA; mean ± SD, n=3
Method: Fluorescence spectra of 1 µM solution of fluorescent dyes and ligands in PBS pH 7.4, PBS pH 7.4 + 1 mg/ml BSA (Sigma) and with or without 0.1% SDS (Acros Organics) were recorded on a multiwell plate reader Spark 20 M (Tecan) in half-area black 96-well plates (Greiner Bio-One, cat. 675076) at room temperature (25 °C) after 2 h incubation. Fluorescence emission was recorded from 600 nm to 800 nm with excitation at 580 nm. The emission bandwidth for all measurements was set to 5 nm. The spectra were averaged from 3 individual experiments. Ratios F(BSA+SDS)/F(BSA) of fluorescence signals at 635 nm for 610CP, 645 nm for BODIPY 630/650-X and 655 nm for KK114 conjugates were calculated. The obtained results are summarized (Table 1 and Supplementary Fig. 7).

T2 sequence (P07550 whole entry, the tested form may be a part): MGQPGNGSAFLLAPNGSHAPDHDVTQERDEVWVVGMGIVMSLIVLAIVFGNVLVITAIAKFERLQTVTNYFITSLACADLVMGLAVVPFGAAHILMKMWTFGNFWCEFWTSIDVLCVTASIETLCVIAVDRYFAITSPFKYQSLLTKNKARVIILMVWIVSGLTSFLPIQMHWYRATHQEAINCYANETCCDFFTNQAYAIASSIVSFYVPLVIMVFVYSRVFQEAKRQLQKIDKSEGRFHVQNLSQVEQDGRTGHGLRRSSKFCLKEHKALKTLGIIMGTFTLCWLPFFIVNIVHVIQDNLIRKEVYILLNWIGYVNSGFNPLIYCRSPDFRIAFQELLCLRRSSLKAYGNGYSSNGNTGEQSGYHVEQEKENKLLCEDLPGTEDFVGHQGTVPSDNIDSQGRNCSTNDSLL
T1 sequence (P07550 whole entry): as the sequence (P07550 whole entry, the tested form may be a part) above

| Structure (SMILES) | EC50 (β2AR [1]; HEK 293 expressing 3′,5′-cAMP FRET sensor, 30 min incubation, room temperature, read-out: EC50 (mean ± SD)) [nM] | intracellular cAMP level (β2AR [1]) | Receptor internalization (β2AR-YFP fusion protein) | Staining performance (β2AR-YFP fusion protein) | Competitive displacement (β2AR-YFP fusion protein; U2OS β2AR-YFP) | confocal staining at 100 nM (β2AR-YFP fusion protein; U2OS β2AR-YFP, 100 nM, 40 min, room temperature, washed) | confocal staining at 250 nM (β2AR-YFP fusion protein; U2OS β2AR-YFP, 250 nM, 40 min, room temperature, washed) | receptor staining (β2AR [2]) | competitive binding with excess unlabeled ligand (β2AR [2]) | Fluorescence increase (F BSA+SDS / F BSA) [3] | Receptor internalization (β2AR-YFP fusion protein; listed as carazolol-KK114 (24)) | confocal staining at all tested concentrations (β2AR-YFP fusion protein; U2OS β2AR-YFP, 5 nM, 100 nM, 250 nM, 40 min) | Competitive displacement (β2AR-YFP fusion protein; U2OS β2AR-YFP, listed as Carazalol-KK114 (24)) |
| --- | --- | --- | --- | --- | --- | --- | --- | --- | --- | --- | --- | --- | --- |
| Cc1c(CCC(=O)NCCOCCOCCNC(=O)CCN(C)C(=O)c2c(F)c(F)c(F)c(F)c2C2=c3cc4c5c(c3Oc3c2cc2c6c3CCCN6C(C)(C)C=C2CS(=O)(=O)O)CCC[N+]=5C(C)(C)C=C4CS(=O)(=O)[O-])cccc1CC(C)(C)NCC(O)c1ccc(O)c2c1OCC(=O)N2 (centres unmarked) [BI-PEG-KK114 (18)] | 5.7 ± 2.2 | induces intracellular cAMP level increase | triggered extensive βAR internalization and Yes | Strong | no signal and Yes | performed well | performed well | plasma membrane localized receptor staining | no background fluorescence | 1.4±0.1 |  |  |  |
| CN(CCC(=O)NCCOCCOCCOCCOCCC(=O)NCCC(C)(C)NCC(O)COc1cccc2[nH]c3ccccc3c12)C(=O)c1c(F)c(F)c(F)c(F)c1C1=c2cc3c4c(c2Oc2c1cc1c5c2CCCN5C(C)(C)C=C1CS(=O)(=O)O)CCC[N+]=4C(C)(C)C=C3CS(=O)(=O)[O-] (centres unmarked) [Carazolol-KK114 (24)] |  | did not change | Weak | Strong | Yes |  |  | plasma membrane localized receptor staining | efficiently displaced | 5.9±1.5 | did not change | specific staining | no background fluorescence |

Reference: paper PMC5614969, “High-Affinity Functional Fluorescent Ligands for Human β-Adrenoceptors” (Scientific Reports, 2017)
